According to patent US6967196B1, “Sulfonamide compounds and uses thereof” (Bristol-Myers Squibb Company, priority 1999, dated 2005):
Structures can show the parent of a compound that is named as a salt. Where two headings read alike, the source gives them in different places.

Test system: amyloid β production in transfected H4 (human neuroglioma) cells stably expressing APP constructs
Assay: In vitro cell-based assay of inhibitors of amyloid β production (ELISA)
Settings: amyloid β in medium by ELISA, read-out: ACTIVITY (IC50, inhibition of amyloid β production)
Outline: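 Test agents are screened at 10-100 μM for about 16 hours on cells stably expressing wild-type or variant APP. Secreted Aβ is measured by ELISA and compared with control-treated cells.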

[1] = Homo sapiens, 16 h, transfected H4 cells stably expressing APP, approx. 16 h incubation
[2] = transfected H4 cells stably expressing APP, approx. 16 h incubation
[3] = transfected H4 cells stably expressing APP, approximately 16 hours incubation
[4] = Homo sapiens, 16 h, transfected H4 cells stably expressing APP, approximately 16 hours incubation
[5] = transfected H4 cells stably expressing APP constructs, approximately 16 hours incubation
[6] = Homo sapiens, 16 h, transfected H4 cells expressing APP, approximately 16 hours incubation
[7] = Homo sapiens, 16 h, transfected H4 cells stably expressing APP constructs, approximately 16 hours incubation
[8] = transfected H4 cells stably expressing APP, approximately 16 hours incubation, Table B

How did the IC50 [1] turn out when O=C(c1ccccc1)N1CCCCC1CCOc1ccccc1CN(c1cc(F)ccc1F)S(=O)(=O)c1ccc(Cl)cc1 (centres unmarked) [Example 745, N-{2-[2-(1-benzoyl-2-piperidinyl)ethoxy]benzyl}-4-chloro-N-(2,5-difluorophenyl)benzenesulfonamide] was run?
Its IC50 is 100 to 500 nM.

For “N-{2-[2-(1-{[(4-chlorophenyl)sulfonyl]-2,5-difluoroanilino}ethyl)phenoxy}ethyl}-N-ethyl-3-methyl-2-butenamide [Example 642]”, which IC50 [2] is on record?
Its IC50 is 100 to 500 nM.

For “4-chloro-N-(2,5-difluorophenyl)-N-{2-[3-(1-piperidinyl)propyl]benzyl}-N-phenylbenzenesulfonamide [Example 1044]”, which IC50 [3] is on record?
Its IC50 is over 500 nM.

Which IC50 [3] does the source give for “N-{3-[2-(1-{[(4-chlorophenyl)sulfonyl]-2,5-difluoroanilino}ethyl)phenoxy]propyl}-2,3,4,5 tetrafluorobenzamide [Example 863]” here?
The IC50 was 100 to 500 nM.

CN(C)CCCOc1ccccc1CN(c1ccccc1)S(C)(=O)=O [Example 1082, N-{2-[3-(dimethylamino)propoxy]benzyl}-N-phenylmethanesulfonamide] was tested. Which IC50 [4] did it give?
Its IC50 is over 10000 nM.

For CC(C)SCCC[C@@H](C)N(c1cc(Cl)ccc1Cl)S(=O)(=O)c1ccc(Cl)cc1 [Example 1190], which IC50 [5] is on record?
Its IC50 is 100 to 500 nM.

Which IC50 [3] does the source give for “ethyl (2E)-3-[2-({[(4-chlorophenyl)sulfonyl]anilino}methyl)phenyl]-2-propenoate [Example 971]” here?
Its IC50 is over 500 nM.

For C[C@H](COC(=O)N(C)CCO)N(c1cc(Cl)ccc1Cl)S(=O)(=O)c1ccc(Cl)cc1 [Example 1249, 4-Chloro-N-(2,5-dichlorophenyl)-N-[2-[[N′-[2-(hydroxyethyl)-N′-methylamino]carbonyl]oxy]-(R)-1-methylethyl]benzenesulfonamide], which IC50 [5] is on record?
The IC50 was at most 25 nM.

O=S(=O)(c1ccc(Cl)cc1)N(Cc1ccccc1OCCCN1CCCCC1)CC1CC1 [Example 984, 4-chloro-N-(cyclopropylmethyl-N-{2-[3-(1-piperidinyl)propoxy]benzyl}benzenesulfonamide hydrochloride] was tested. Which IC50 [3] did it give?
Its IC50 is over 500 nM.

For “N-{3-[2-({[(4-chlorophenyl)sulfonyl]-2,5-difluoroanilino}methyl)phenoxy]propyl}-3-methoxy-N-methylbenzamide [Example 814]”, which IC50 [3] is on record?
The IC50 was 100 to 500 nM.

“2-((1R)-1-{[(4-chlorophenyl)sulfonyl]-2,5-difluoroanilino}ethyl)benzyl 2-phenylpropylcarbamate [Example 799]” was tested. Which IC50 [2] did it give?
Its IC50 is 100 to 500 nM.

For CCS(=O)(=O)CC[C@@H](C)N(c1cc(Cl)ccc1Cl)S(=O)(=O)c1ccc(Cl)cc1 [Example 1180, 4-chloro-N-[2,5-dichlorophenyl]-N-[1(R)-methyl-(3-ethylsulfonyl)propyl]benzenesulfonamide], which IC50 [5] is on record?
The IC50 was at most 25 nM.

Which IC50 [6] does the source give for C[C@H](C(=O)NCc1c(F)cccc1F)N(c1cc(Cl)ccc1F)S(=O)(=O)c1ccc(Cl)cc1 [Example 1327] here?
The IC50 was over 500 nM.

With O=S(=O)(c1ccc(Cl)cc1)N(Cc1ccccc1OCCC1CCCN1)c1ccccc1 (centres unmarked) [Example 963, 4-chloro-N-phenyl-N-{2-[2-(2-pyrrolidinyl)ethoxy]benzyl}benzenesulfonamide hydrochloride] as the molecule, how does the IC50 [4] read?
Its IC50 is over 500 nM.

With O=[N+]([O-])c1ccc(S(=O)(=O)CCCOc2ccccc2CN(c2cc(F)ccc2F)S(=O)(=O)c2ccc(Cl)cc2)cc1 [Example 905, 4-chloro-N-(2,5-difluorophenyl)-N-(2-{3-[(4-nitrophenyl)sulfonyl]propoxy}benzyl)benzenesulfonamide] as the molecule, how does the IC50 [4] read?
The IC50 was over 500 nM.

With Cc1cccc(C(=O)N(C)CCCOc2ccccc2C(C)N(c2cc(F)ccc2F)S(=O)(=O)c2ccc(Cl)cc2)c1 (centres unmarked) [Example 766] as the molecule, how does the IC50 [2] read?
The IC50 was 100 to 500 nM.

For C[C@H](CCC[S+](C)[O-])N(c1cc(F)ccc1F)S(=O)(=O)c1ccc(Cl)cc1 (stereo partly drawn) [Example 1175, 4-chloro-N-[2,5-difluorophenyl]-N-[1(R)-methyl-(4-methylsulfinyl)butyl]benzenesulfonamide], which IC50 [5] is on record?
Its IC50 is at most 25 nM.

For “N-{3-[2-(1-{[(4-chlorophenyl)sulfonyl]-2,5-difluoroanilino}ethyl)phenoxy]propyl}-3,4-dimethoxy-N-methylbenzamide [Example 643]”, which IC50 [2] is on record?
The IC50 was 100 to 500 nM.

How did the IC50 [1] turn out when CC(c1ccccc1OCCN(C)S(=O)(=O)C(C)C)N(c1cc(F)ccc1F)S(=O)(=O)c1ccc(Cl)cc1 (centres unmarked) [Example 735, 4-chloro-N-(2,5-difluorophenyl)-N-[1-(2-{2-[(isopropylsulfonyl)(methyl)amino]ethoxy}phenyl)ethyl]benzenesulfonamide] was run?
The IC50 was 100 to 500 nM.

How did the IC50 [4] turn out when O=C(c1ccccc1Br)N1CCCCC1CCOc1ccccc1CN(c1cc(F)ccc1F)S(=O)(=O)c1ccc(Cl)cc1 (centres unmarked) [Example 942, N-(2-{2-[1-(2-bromobenzoyl)-2-piperidinyl]ethoxy}benzyl)-4-chloro-N-(2,5-difluorophenyl)benzenesulfonamide] was run?
Its IC50 is over 500 nM.

For CC1(O)CCN(CCCOc2ccccc2CN(c2ccccc2)S(=O)(=O)c2ccc(Cl)cc2)CC1 [Example 965, 4-chloro-N-{2-[3-(4-hydroxy-4-methyl-1-piperidinyl)propoxy]benzyl}-N-phenylbenzenesulfonamide hydrochloride], which IC50 [4] is on record?
Its IC50 is over 500 nM.

How did the IC50 [3] turn out when O=C(OC[C@H](c1ccccc1)N(c1cc(F)ccc1F)S(=O)(=O)c1ccc(Cl)cc1)c1cccnc1 [Example 1006, (2S)-2-({[(4-chlorophenyl)sulfonyl]-2,5-difluoroanilino}-2-phenylethyl nicotinate] was run?
Its IC50 is over 500 nM.

With C[C@H](C(=O)NCc1cc(Cl)cc(Cl)c1)N(c1cc(Cl)ccc1F)S(=O)(=O)c1ccc(Cl)cc1 [Example 1365] as the molecule, how does the IC50 [6] read?
Its IC50 is over 500 nM.

Which IC50 [1] does the source give for CCN(CCOc1ccccc1C(C)N(c1cc(F)ccc1F)S(=O)(=O)c1ccc(Cl)cc1)C(=O)NC(C)(C)C (centres unmarked) [Example 709, N-[1-(2-{2-[[(tert-butylamino)carbonyl](ethyl)amino]ethoxy}phenyl)ethyl]-4-chloro-N-(2,5 difluorophenyl)benzenesulfonamide] here?
The IC50 was 100 to 500 nM.

With CC(C)Oc1c(NCC[C@@H](C)N(c2cc(F)ccc2F)S(=O)(=O)c2ccc(Cl)cc2)c(=O)c1=O [Example 1141, 4-chloro-N-(2,5-difluorophenyl)-N-[3-(2-isopropoxy-3,4-dioxo-1-cyclobutenyl)amine-1(R)-methylpropyl]benzenesulfonamide] as the molecule, how does the IC50 [5] read?
Its IC50 is 100 to 500 nM.

For C[C@H](CCCN1CCSC1C(=O)O)N(c1cc(Cl)ccc1Cl)S(=O)(=O)c1ccc(Cl)cc1 (stereo partly drawn) [Example 1103, 4-chloro-N-(2,5-dichlorophenyl)-N-[4-(2-carboxy-3-thiazolidinyl)-1(R)-methylbutyl]benzenesulfonamide], which IC50 [7] is on record?
Its IC50 is at most 25 nM.

Which IC50 [7] does the source give for CCNS(=O)(=O)CCC[C@@H](C)N(c1cc(Cl)ccc1Cl)S(=O)(=O)c1ccc(Cl)cc1 [Example 1208, 4-chloro-N-[2,5-dichlorophenyl]-N-[4-[(ethylamino)sulfonyl]-1(R)-methylbutyl]benzenesulfonamide] here?
Its IC50 is at most 25 nM.

With C[C@H](c1ccccc1CCOC(=O)NC1CCCCC1)N(c1cc(F)ccc1F)S(=O)(=O)c1ccc(Cl)cc1 [Example 685, 2-[2-((1R)-1-{3-[2-(1-{[(4-chlorophenyl)sulfonyl]-2,5-difluoroanilino}ethyl)phenyl]ethyl cyclohexylcarbamate] as the molecule, how does the IC50 [2] read?
Its IC50 is 100 to 500 nM.

O=S(=O)(c1ccc(Cl)cc1)N(Cc1cc(Cl)ccc1OCCCN1CCC(O)CC1)c1ccccc1 [Example 309, 4-Chloro-N-{5-chloro-2-[3-(4-hydroxy-1-piperidinyl)propoxy]benzyl}-N-phenylbenzenesulfonamide Hydrochloride] was tested. Which IC50 [8] did it give?
Its IC50 is 50 to 100 nM.

With CN(C)CCCOc1ccccc1CN(c1ccccc1)S(=O)(=O)c1ccc([N+](=O)[O-])cc1 [Example 1083, N-{2-[3-(dimethylamino)propoxy]benzyl}-4-nitro-N-phenylbenzenesulfonamide] as the molecule, how does the IC50 [7] read?
The IC50 was over 10000 nM.

O=S(=O)(c1ccc(Cl)cc1)N(Cc1ccccc1OCCCN1CCC(Cc2ccccc2)CC1)c1ccccc1 [Example 880, N-{2-[3-(4-benzyl-1-piperidinyl)propoxy]benzyl}-4-chloro-N-phenylbenzenesulfonamide hydrochloride] was tested. Which IC50 [4] did it give?
Its IC50 is over 500 nM.

With O=S(=O)(c1ccc(Cl)cc1)N(Cc1ccccc1OCCC1CCCCN1Cc1ccccc1I)c1cc(F)ccc1F (centres unmarked) [Example 672, 4-chloro-N-(2,5-difluorophenyl)-N-(2-{2-[1-(2-iodobenzyl)-2-piperidinyl]ethoxy}benzyl)benzenesulfonamide] as the molecule, how does the IC50 [1] read?
The IC50 was 100 to 500 nM.

Cc1cccc(C(=O)NCCCOc2ccccc2C(C)N(c2cc(F)ccc2F)S(=O)(=O)c2ccc(Cl)cc2)c1 (centres unmarked) [Example 687] was tested. Which IC50 [2] did it give?
The IC50 was 100 to 500 nM.

CC(c1ccccc1OCCCN(C)C(=O)Oc1ccccc1)N(c1cc(F)ccc1F)S(=O)(=O)c1ccc(Cl)cc1 (centres unmarked) [Example 826, phenyl 3-[2-(1-{[(4-chlorophenyl)sulfonyl]-2,5-difluoroanilino}ethyl)phenoxy]propyl(methyl)carbamate] was tested. Which IC50 [3] did it give?
The IC50 was 100 to 500 nM.

With “2-[2-((1R)-1-{[(4-chlorophenyl)sulfonyl]-2,5-difluoroanilino}ethyl)-5-fluorophenyl]ethyl 2,5-difluorobenzylcarbamate [Example 358]” as the molecule, how does the IC50 [8] read?
Its IC50 is 50 to 100 nM.
